The results in this text go back to patent US7541193B2, “Caged sensors, regulators and compounds and uses thereof” (Panomics, Inc., priority 2002, dated 2009).

For one test, the system named is PKC. Nature of the test: photoactivated in vitro PKC assay initiated by uncaging caged ATP. Type of test: biochemical. The settings on record: exposed to 365 nm UV lamp for 10 min; excitation 485 nm, emission 535 nm. The procedure: FIG. 34 is a line graph depicting the results of a photoactivated PKC assay using caged ATP and a PKC sensor. […] Reactions were read on a fluorescent microtiter plate reader with excitation at 485 nm and emission at 535 nm.
FIG. 33 (see, also, FIG. 23) illustrates the activation of an in vitro PKC assay after exposure to 365 nm light. All components were mixed together in a 96-well microtiter plate. The plate was exposed to a 365 nm UV lamp for 10 min (step 3301) and immediately placed into a fluorescent microtiter plate reader for detection. The light-activated compound is DMNPE-caged ATP. […] See, e.g., McCray and Trentham (1989) “Properties and Uses of Photoreactive Caged Compounds” Annu Rev Biophys Biophys Chem 18:239 for a description of the caged ATP. The PKC probes and reaction set-up are based on Yeh et al. (2002) “Real time visualization of protein kinase activity in living cells” J Biol Chem 277: 11527-11532, with the replacement of normal ATP by DMNPE-caged ATP.

The test system of the next test is protein kinase C (PKC). In words: in vivo IC-50 determination with photolabile caged PKC sensor in living HeLa cells. To be noted: HeLa cells transfected with 10 μM caged PKC sensor; 30 min inhibitor incubation; uncaging 1 J/cm^2 365 nm; 1 μM PMA; read-out: IC-50 determined in vivo. Type of test: cell-based. As for the experimental part: The caged PKC sensor was transfected into the cells at a concentration of 10 μM, as follows. To 37.5 μl serum-free DMEM, 2.5 μl Profect P-2 and then 10 μl of caged PKC sensor (diluted to 500 μM in PBS) were added. The reagents were mixed gently and incubated for 30 minutes at room temperature. The DMEM was removed from the well containing the HeLa cells, and the cells were washed once with PBS. After addition of 450 μl serum-free DMEM to the Profect P-2-caged sensor complex, 50 μl of the complex was added to each well. The HeLa cells were incubated with the complex at 37° C. for 2 h (or optionally longer, with the addition of fresh DMEM). To uncage the caged PKC sensor, cells were exposed from beneath the plate to 1 J/cm^2 365 nm UV light. Uncaging light was produced by a BlueWave ™ UV Spot Light System fitted with a Lightguide mount assembly, Cool Blue™ filter, and Lightguide rod lens assembly (Dymax Corp., on the internet at dymax.com, part numbers 38600, 38670, and 38699). […] Fluorescent signal from the PKC sensor was read on an Acumen Explorer™ microplate reader.
Cells containing the caged sensor were incubated with 4-fold dilutions of GF109203X for 30 min before the cells were exposed to uncaging light (1 J/cm^2, 365 nm) and treated with 1 μM PMA. Fluorescent signal from the PKC sensor was read on an Acumen Explorer™ microplate reader. […]

The next test deals with PKC enzyme. In words: in vitro biochemical PKC assay with PKC sensor (not caged). To be noted: 1 mM ATP, 1 μM PKC sensor (not caged), 22 nM PKC enzyme; read-out: IC-50 determined in an in vitro biochemical assay.

Regarding `COc1cc(C(C)OP(=O)(O)OP(=O)(O)OP(=O)(O)OCC2OC(n3cnc4c(N)ncnc43)C(O)C2O)c([N+](=O)[O-])cc1OC` (stereo not drawn) [DMNPE-caged ATP], the “signal response (relative fluorescence) of PKC reaction” value in the test on PKC is “exhibits signal response similar to the reaction with normal ATP”. On to `CN(C)CCCn1cc(C2=C(c3c[nH]c4ccccc34)C(=O)NC2=O)c2ccccc21` [GF109203X], for which the IC50 came to 1600 nM in the test with protein kinase C (PKC) and 1100 nM on PKC enzyme.
